13 molecules from PubChem BioAssay (NCI) can be followed below.

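Briefly, cells in 96-well plates were exposed to five compound concentrations for 48 h, and endpoints were estimated by linear interpolation. TGI is the concentration that stops growth completely.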 Where only a bound is given, the exact number is not on record here.

Among the test systems are SK-MEL-28 melanoma; DU-145 prostate; RPMI-8226 leukemia; BT-549 breast; HOP-62 NSCLC; IGROV1 ovarian; MCF7 breast; MDA-MB-231 breast; UO-31 renal; ACHN renal; HS 578T breast; T-47D breast; LOX IMVI melanoma; PC-3 prostate; UACC-62 melanoma; NCI-H522 lung; EKVX NSCLC; UACC-257 melanoma.
Holding throughout (assay): growth of human tumour cells (NCI), 48 h

As for `CC(C)=CCC/C(=C/CC/C(=C\CCc1ccoc1)C(=O)O)C(=O)O`, the TGI in the test with SK-MEL-28 melanoma, with DU-145 prostate, in the test with RPMI-8226 leukemia, in the test with BT-549 breast, in the test on HOP-62 NSCLC and in the test with IGROV1 ovarian was above 100 µM each time. Also, the TGI with MCF7 breast, with MDA-MB-231 breast, with UO-31 renal, with ACHN renal, in the test on HS 578T breast and in the test with T-47D breast was above 100 µM throughout. Besides, the TGI in the test with LOX IMVI melanoma, in the test on PC-3 prostate, in the test on UACC-62 melanoma, with NCI-H522 lung, in the test with EKVX NSCLC and in the test on UACC-257 melanoma was above 100 µM in each case.

On to `C[C@H](NC(=O)c1ccc(CNC(=O)/C=C/c2cccc(Oc3ccccc3)c2)cc1)c1ccccc1`, for which the TGI with SK-MEL-28 melanoma, in the test with DU-145 prostate, in the test on RPMI-8226 leukemia, in the test on BT-549 breast, in the test with HOP-62 NSCLC and with IGROV1 ovarian was above 100 µM throughout. In addition, the TGI in the test on MCF7 breast, in the test with MDA-MB-231 breast, in the test on UO-31 renal, in the test with ACHN renal, in the test with HS 578T breast and in the test with T-47D breast was above 100 µM throughout. Also, the TGI in the test on LOX IMVI melanoma, with PC-3 prostate, in the test on UACC-62 melanoma, in the test with NCI-H522 lung, in the test on EKVX NSCLC and in the test with UACC-257 melanoma was above 100 µM each time.

On to `COc1cc(OC)nc(-n2c(N)c(C#N)c3ccc([N+](=O)[O-])cc3c2=O)n1`, for which the TGI with SK-MEL-28 melanoma, with DU-145 prostate, with RPMI-8226 leukemia, in the test on BT-549 breast, in the test with HOP-62 NSCLC and with IGROV1 ovarian was above 100 µM in each case. Moreover, the TGI in the test with MCF7 breast, in the test with MDA-MB-231 breast, in the test on UO-31 renal, in the test with ACHN renal, with HS 578T breast and in the test on T-47D breast was above 100 µM each time. The TGI with LOX IMVI melanoma is above 100 µM; with PC-3 prostate, above 100 µM; in the test on UACC-62 melanoma, above 100 µM; in the test with NCI-H522 lung, 55.4 µM; with EKVX NSCLC, above 100 µM; in the test with UACC-257 melanoma, above 100 µM.

On to `CCOC(=O)c1cn2c(n1)sc1c(Cl)c(Cl)ccc12`, for which the TGI in the test with SK-MEL-28 melanoma is above 100 µM; in the test on DU-145 prostate, above 100 µM; in the test on RPMI-8226 leukemia, above 100 µM; in the test on BT-549 breast it was above 100 µM; with HOP-62 NSCLC, above 51.3 µM; with IGROV1 ovarian, above 100 µM. Further, the TGI is above 100 µM in the test with MCF7 breast; above 100 µM with MDA-MB-231 breast; above 100 µM in the test on UO-31 renal; above 100 µM with ACHN renal; 28.6 µM in the test with HS 578T breast; above 90.5 µM in the test on T-47D breast. Moreover, the TGI in the test on LOX IMVI melanoma was above 100 µM; with PC-3 prostate, above 100 µM; with UACC-62 melanoma it was above 100 µM; in the test with NCI-H522 lung, 43.4 µM; with EKVX NSCLC, above 100 µM; in the test on UACC-257 melanoma it was above 100 µM.

Take `CC(C)(C)OC(=O)N1CCC(C(=O)O)CC1`: the TGI in the test on SK-MEL-28 melanoma, with DU-145 prostate, in the test on RPMI-8226 leukemia, in the test on BT-549 breast, in the test with HOP-62 NSCLC and in the test with IGROV1 ovarian was above 100 µM throughout. For the same molecule, the TGI with MCF7 breast, in the test on MDA-MB-231 breast, in the test with UO-31 renal, with ACHN renal, in the test with HS 578T breast and in the test on T-47D breast was above 100 µM each time. Moreover, the TGI in the test with LOX IMVI melanoma, with PC-3 prostate, with UACC-62 melanoma, in the test on NCI-H522 lung, in the test on EKVX NSCLC and in the test on UACC-257 melanoma was above 100 µM throughout.

For `O=S(=O)(O)C(=Nc1cccc(Cc2ccccc2)c1)Nc1cccc(Cc2ccccc2)c1`, the TGI in the test on SK-MEL-28 melanoma was 38.8 µM; in the test with DU-145 prostate it was 35.4 µM; with RPMI-8226 leukemia, 83.1 µM; in the test on BT-549 breast, 33.4 µM; in the test on HOP-62 NSCLC, above 100 µM; in the test with IGROV1 ovarian, 31.3 µM. Further, the TGI in the test on MCF7 breast was 37.9 µM; in the test with MDA-MB-231 breast, 38.2 µM; with UO-31 renal it was 29.5 µM; in the test with ACHN renal, 38.7 µM; in the test on HS 578T breast, 45.5 µM; in the test on T-47D breast, 32.1 µM. Further, the TGI turned out to be 26.6 µM with LOX IMVI melanoma; 35.1 µM in the test with PC-3 prostate; 30.9 µM with UACC-62 melanoma; 29.4 µM in the test with NCI-H522 lung; 30.9 µM in the test on EKVX NSCLC; 48.7 µM in the test on UACC-257 melanoma.

As for `O=C(NCCNCCCNC(=O)c1cc(-c2ccccc2)nc2ccccc12)c1cccc(O)c1O`, the TGI with SK-MEL-28 melanoma is 18.5 µM; in the test on DU-145 prostate, above 100 µM; with RPMI-8226 leukemia it was 15.3 µM; with BT-549 breast, 11.9 µM; in the test with HOP-62 NSCLC, 15.9 µM; in the test with IGROV1 ovarian, 28.9 µM. In addition, the TGI in the test on MCF7 breast was 15.9 µM; in the test on MDA-MB-231 breast it was above 100 µM; in the test with UO-31 renal, 14.9 µM; in the test on ACHN renal, 20 µM; with HS 578T breast, above 100 µM; in the test on T-47D breast it was 10.8 µM. In addition, the TGI with LOX IMVI melanoma is above 100 µM; with PC-3 prostate, above 100 µM; in the test with UACC-62 melanoma, 12.1 µM; with NCI-H522 lung, 29.7 µM; with EKVX NSCLC it was above 100 µM; in the test on UACC-257 melanoma, 18.5 µM.

As for `C=CCC1(OC(C)=O)C2OC(=O)C1(O)OCC2O` (centres undefined), the TGI with SK-MEL-28 melanoma, in the test on DU-145 prostate, in the test on RPMI-8226 leukemia, in the test with BT-549 breast, in the test on HOP-62 NSCLC and with IGROV1 ovarian was above 100 µM in each case. Also, the TGI in the test on MCF7 breast, with MDA-MB-231 breast, with UO-31 renal, in the test on ACHN renal, with HS 578T breast and in the test with T-47D breast was above 100 µM throughout. The TGI in the test with LOX IMVI melanoma, in the test on PC-3 prostate, in the test on UACC-62 melanoma, with NCI-H522 lung, with EKVX NSCLC and in the test on UACC-257 melanoma was above 100 µM throughout.

As to `NC(=O)c1cc2ccc(O)cc2oc1=Nc1ccccc1`, the TGI in the test with SK-MEL-28 melanoma is above 100 µM; in the test on DU-145 prostate it was above 100 µM; with RPMI-8226 leukemia, 63.8 µM; in the test on BT-549 breast, above 100 µM; with HOP-62 NSCLC, above 100 µM; in the test with IGROV1 ovarian, above 100 µM. For the same molecule, the TGI in the test with MCF7 breast is above 100 µM; in the test with MDA-MB-231 breast, above 100 µM; in the test with UO-31 renal it was above 100 µM; with ACHN renal, above 100 µM; in the test with HS 578T breast, above 100 µM; with T-47D breast it was 66.1 µM. For the same molecule, the TGI in the test with LOX IMVI melanoma was above 100 µM; in the test with PC-3 prostate, above 100 µM; in the test on UACC-62 melanoma, above 100 µM; with NCI-H522 lung it was 77.9 µM; in the test with EKVX NSCLC, above 100 µM; with UACC-257 melanoma, above 100 µM.

On to `O=C(CCc1ccc(O)c(O)c1)NCCc1cc(O)cc(O)c1`, for which the TGI with SK-MEL-28 melanoma, in the test with DU-145 prostate, in the test with RPMI-8226 leukemia, in the test with BT-549 breast, in the test on HOP-62 NSCLC and in the test with IGROV1 ovarian was above 100 µM throughout. For the same molecule, the TGI with MCF7 breast, in the test on MDA-MB-231 breast, in the test with UO-31 renal, with ACHN renal, in the test with HS 578T breast and in the test on T-47D breast was above 100 µM each time. The TGI in the test with LOX IMVI melanoma, in the test with PC-3 prostate, with UACC-62 melanoma, in the test with NCI-H522 lung, with EKVX NSCLC and with UACC-257 melanoma was above 100 µM in each case.

For `CCn1c(SCC(=O)NNC(=S)Nc2ccc([N+](=O)[O-])cc2)nc2ccccc2c1=O`, the TGI with SK-MEL-28 melanoma, with DU-145 prostate, in the test on RPMI-8226 leukemia, in the test with BT-549 breast, in the test on HOP-62 NSCLC and with IGROV1 ovarian was above 100 µM throughout. The TGI in the test with MCF7 breast, in the test on MDA-MB-231 breast, in the test on UO-31 renal, in the test with ACHN renal, in the test with HS 578T breast and in the test with T-47D breast was above 100 µM each time. The TGI in the test with LOX IMVI melanoma, in the test with PC-3 prostate, in the test on UACC-62 melanoma, in the test on NCI-H522 lung, in the test with EKVX NSCLC and in the test on UACC-257 melanoma was above 100 µM each time.

Consider `COC(=O)CNS(=O)(=O)c1ccc(-c2c3nc(c(-c4ccc(S(=O)(=O)NCC(=O)OC)cc4)c4ccc([nH]4)c(-c4ccc(S(=O)(=O)NCC(=O)OC)cc4)c4nc(c(-c5ccc(S(=O)(=O)NCC(=O)OC)cc5)c5ccc2[nH]5)C=C4)C=C3)cc1`, for which the TGI in the test with SK-MEL-28 melanoma, in the test on DU-145 prostate, with RPMI-8226 leukemia, in the test with BT-549 breast, in the test on HOP-62 NSCLC and with IGROV1 ovarian was above 100 µM throughout. Also, the TGI in the test with MCF7 breast, in the test on MDA-MB-231 breast, with UO-31 renal, in the test with ACHN renal, with HS 578T breast and in the test on T-47D breast was above 100 µM each time. Besides, the TGI in the test on LOX IMVI melanoma, in the test on PC-3 prostate, with UACC-62 melanoma, in the test with NCI-H522 lung, in the test with EKVX NSCLC and with UACC-257 melanoma was above 100 µM throughout.

As to `CC(=O)OCC1OC(OC2CC3C(C)(C)C(OC(C)=O)CC[C@]3(C)C3CCC45CC4(CCC5[C@@H](C)C[C@H](O)C(O)C(C)(C)O)[C@]23C)C(O)C(O)C1O` (some centres undefined), the TGI in the test with SK-MEL-28 melanoma, in the test with DU-145 prostate, in the test on RPMI-8226 leukemia, in the test with BT-549 breast, in the test with HOP-62 NSCLC and in the test on IGROV1 ovarian was above 10 µM in each case. Besides, the TGI in the test with MCF7 breast, in the test with MDA-MB-231 breast, in the test on UO-31 renal, in the test on ACHN renal, in the test with HS 578T breast and in the test on T-47D breast was above 10 µM throughout. The TGI with LOX IMVI melanoma, in the test with PC-3 prostate, in the test with UACC-62 melanoma, in the test with NCI-H522 lung, in the test with EKVX NSCLC and with UACC-257 melanoma was above 10 µM each time.
